target: T1, His-tagged full-length RSK2 (RPS6KA3) (Homo sapiens, UniProt P51812); test: RSK2 Omnia Assay for compound IC50 determination; type: biochemical; settings: ATP 15 μM, n=2, read-out: Mean RSK2 Biochem IC50
T1 construct: His-tagged full-length RSK2 (RPS6KA3, Invitrogen PV3323); His; purchased Invitrogen PV3323
Procedure: RSK1 & RSK2 Omnia Assay Protocol for Compound IC50 Determination
The Omnia Assay (Invitrogen) has been optimized for His-tagged full length RSK1 (RPS6KA1, Millipore 14-509) and for His-tagged full-length RSK2 (RPS6KA3, Invitrogen PV3323). In this assay system, Omnia ST Peptide 6 (Invitrogen KNZ1061) functions as a substrate for RSK1 or RSK2. Phosphorylation of this SOX-containing peptide results in an increase in fluorescence at 485 nm upon excitation at 360 nm.
Assays are carried out in 384-well OptiPlates (Perkin Elmer 6007290) in a total volume of 20 μL containing RSK1 ([…]) or RSK2 ([…]), Omnia ST Peptide 6 (5 μM), ATP (15 μM, Km=16.3 μM), and test compound (variable) in RSK assay buffer (50 mM HEPES, pH 7.5, 10 mM MgCl2, 0.01% Tween-20, 1% glycerol, 1 mM DTT, 1 mM EGTA, 0.01% BSA) with 1% DMSO.
IC50s for test compounds are typically determined using an 11-point three-fold serial dilution with a final assay concentration ranging either from 170 μM to […] or from 17 μM to […]. All compound concentrations are assayed in duplicate. Initial compound dilutions are prepared at 100× concentration in 100% DMSO from a 10 mM stock solution. Compounds are further diluted 1:25 in assay buffer resulting in a 4× concentrated solution.
To run the assay 5 μL of the above 4× concentrated compound solution (or 4% DMSO for positive controls) is added to the assay plate followed by 5 μL of a solution containing peptide (20 μM) and ATP (60 μM) in assay buffer. The reaction is initiated by the addition of 10 μL of RSK1 ([…]) or RSK2 ([…]) in assay buffer, or assay buffer alone for negative controls. The increase in fluorescence due to peptide phosphorylation is monitored continuously as a function of time using a Spectramax M5 plate reader (Molecular Devices) equipped with SoftMax Pro software.
The slopes from the linear portion of progress curves are used to determine IC50 values by non-linear curve-fitting to a four-parameter equation using GraphPad Prism (GraphPad Software, Inc.) or XLFit (IDBS). IC50's are determined in duplicate (n=2) and Ki values are calculated from IC50 values using the Cheng-Prusoff equation assuming a competitive mode of inhibition.

T1 sequence (P51812 whole entry): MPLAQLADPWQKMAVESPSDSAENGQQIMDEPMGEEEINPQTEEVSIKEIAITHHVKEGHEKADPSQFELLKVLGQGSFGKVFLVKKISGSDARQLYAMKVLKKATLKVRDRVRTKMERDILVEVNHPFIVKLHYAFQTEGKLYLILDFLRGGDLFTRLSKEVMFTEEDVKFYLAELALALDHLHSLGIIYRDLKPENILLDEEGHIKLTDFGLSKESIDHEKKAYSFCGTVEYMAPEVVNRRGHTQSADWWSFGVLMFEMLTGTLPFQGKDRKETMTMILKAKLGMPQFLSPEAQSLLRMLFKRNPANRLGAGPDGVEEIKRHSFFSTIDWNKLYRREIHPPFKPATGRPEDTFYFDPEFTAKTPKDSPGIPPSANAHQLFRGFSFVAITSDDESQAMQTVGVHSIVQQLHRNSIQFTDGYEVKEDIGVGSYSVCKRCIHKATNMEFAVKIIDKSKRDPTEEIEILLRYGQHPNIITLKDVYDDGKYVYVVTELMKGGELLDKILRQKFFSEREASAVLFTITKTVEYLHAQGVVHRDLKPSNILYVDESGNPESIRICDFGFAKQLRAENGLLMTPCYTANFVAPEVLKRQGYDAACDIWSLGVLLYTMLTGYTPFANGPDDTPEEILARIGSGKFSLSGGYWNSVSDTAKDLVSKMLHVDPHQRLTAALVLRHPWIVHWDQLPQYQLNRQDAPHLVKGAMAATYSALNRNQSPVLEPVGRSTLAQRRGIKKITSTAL

SMILES | IC50
C[C@@H]1C(=O)N(c2ccc(OC(F)(F)F)cc2)c2cnc(Nc3ccc4[nH]ncc4c3)nc2N1C1CCCCC1 [Example 33, (7R)-8-cyclohexyl-2-(1H-indazol-5-ylamino)-7-methyl-5-[4-(trifluoromethoxy)phenyl]-7,8-dihydropteridin-6(5H)-one] | 100 to 1000 nM
C[C@@H]1C(=O)N(c2cccc(C(=O)N(C)C)c2)c2cnc(Nc3ccc4[nH]ncc4c3)nc2N1C1CCCCC1 [Example 32, 3-[(7R)-8-cyclohexyl-2-(1H-indazol-5-ylamino)-7-methyl-6-oxo-7,8-dihydropteridin-5(6H)-yl]-N,N-dimethylbenzamide] | ≤ 100 nM
C[C@@H]1C(=O)N(c2cccnc2)c2cnc(Nc3cc(F)c4[nH]ncc4c3)nc2N1C1CCC2(CC1)CC2 [Example 298, (7R)-2-[(7-fluoro-1H-indazol-5-yl)amino]-7-methyl-5-(pyridin-3-yl)-8-(spiro[2.5]oct-6-yl)-7,8-dihydropteridin-6(5H)-one] | ≤ 100 nM
CC(C)CCN1c2nc(Nc3ccc(C(=O)O)cc3)ncc2N(c2ccccc2)C(=O)C1C (stereo not shown) [Example 14, 4-{[7-methyl-8-(3-methylbutyl)-6-oxo-5-phenyl-5,6,7,8-tetrahydropteridin-2-yl]amino}benzoic acid] | ≤ 100 nM
C[C@@H]1C(=O)N(c2ccc(N3CCN(C)CC3)c(C#N)c2)c2cnc(Nc3cc(F)c4[nH]ncc4c3)nc2N1[C@H]1CC[C@H](C)CC1 [compound 251, 5-[(7R)-2-[(7-fluoro-1H-indazol-5-yl)amino]-7-methyl-8-(trans-4-methylcyclohexyl)-6-oxo-7,8-dihydropteridin-5(6H)-yl]-2-(4-methylpiperazin-1-yl)benzonitrile] | ≤ 100 nM
COc1ccc(N2C(=O)[C@@H](C)N(C3CCC4(CC3)CC4)c3nc(Nc4cc(F)c5[nH]ncc5c4)ncc32)cc1OC [Example 299, (7R)-5-(3,4-dimethoxyphenyl)-2-[(7-fluoro-1H-indazol-5-yl)amino]-7-methyl-8-(spiro[2.5]oct-6-yl)-7,8-dihydropteridin-6(5H)-one] | ≤ 100 nM
C[C@@H]1C(=O)N(c2ccc(C(=O)N(C)C)cc2)c2cnc(Nc3ccc4[nH]ncc4c3)nc2N1C1CCCCC1 [Example 27, 4-[(7R)-8-cyclohexyl-2-(1H-indazol-5-ylamino)-7-methyl-6-oxo-7,8-dihydropteridin-5(6H)-yl]-N,N-dimethylbenzamide] | ≤ 100 nM
C[C@@H]1C(=O)N(c2cccc(C#N)c2)c2cnc(Nc3ccc(CO)cc3)nc2N1C1CCCCC1 [compound 171] | ≤ 100 nM
N#Cc1cccc(N2C(=O)[C@@H](CF)N(C3CCCC3)c3nc(Nc4cc(F)c5[nH]ncc5c4)ncc32)c1 [Example 221, 3-[(7S)-8-cyclopentyl-2-[(7-fluoro-1H-indazol-5-yl)amino]-7-(fluoromethyl)-6-oxo-7,8-dihydropteridin-5(6H)-yl]benzonitrile] | ≤ 100 nM
N#Cc1cccc(N2C(=O)[C@H]3CCCN3c3nc(Nc4cc(F)c5[nH]ncc5c4)ncc32)c1 [Example 84, 3-[(6aR)-2-[(7-fluoro-1H-indazol-5-yl)amino]-6-oxo-6a,7,8,9-tetrahydropyrrolo[2,1-h]pteridin-5(6H)-yl]benzonitrile] | 100 to 1000 nM
C[C@@H]1C(=O)N(c2cccc(C#N)c2)c2cnc(Nc3ccc4[nH]c(=O)sc4c3)nc2N1C1CCC(F)(F)CC1 [compound 267, 3-[(7R)-8-(4,4-difluorocyclohexyl)-7-methyl-6-oxo-2-[(2-oxo-2,3-dihydro-1,3-benzothiazol-6-yl)amino]-7,8-dihydropteridin-5(6H)-yl]benzonitrile] | ≤ 100 nM
COc1ccc(N2C(=O)[C@@H](C)N([C@H]3CC[C@H](OC)CC3)c3nc(Nc4cc(F)c5[nH]ncc5c4)ncc32)cc1OC [compound 225, (7R)-5-(3,4-dimethoxyphenyl)-2-[(7-fluoro-1H-indazol-5-yl)amino]-8-(trans-4-methoxycyclohexyl)-7-methyl-7,8-dihydropteridin-6(5H)-one] | ≤ 100 nM
[2H]C1([2H])C(N2c3nc(Nc4cc(F)c5[nH]ncc5c4)ncc3N(c3ccc(OC)c(OC)c3)C(=O)[C@H]2C)C([2H])([2H])C([2H])([2H])C([2H])([2H])C1([2H])[2H] [compound 300, (7R)-8-[(2,2,3,3,4,4,5,5,6,6-2H10)cyclohexyl]-5-(3,4-dimethoxyphenyl)-2-[(7-fluoro-1H-indazol-5-yl)amino]-7-methyl-7,8-dihydropteridin-6(5H)-one] | ≤ 100 nM
CC(C)CCN1c2nc(Nc3ccc4[nH]ncc4c3)ncc2N(c2ccccc2)C(=O)C1(C)C [Example 70, 2-(1H-indazol-5-ylamino)-7,7-dimethyl-8-(3-methylbutyl)-5-phenyl-7,8-dihydropteridin-6(5H)-one] | ≤ 100 nM
C[C@@H]1C(=O)N(c2cccc(C#N)c2)c2cnc(Nc3cc(F)c4[nH]nc(F)c4c3)nc2N1C1CCCCC1 [compound 131, 3-[(7R)-8-cyclohexyl-2-[(3,7-difluoro-1H-indazol-5-yl)amino]-7-methyl-6-oxo-7,8-dihydropteridin-5(6H)-yl]benzonitrile] | ≤ 100 nM
C[C@@H]1C(=O)N(c2cccc(C#N)c2)c2cnc(Nc3ccc4[nH]nc(F)c4c3F)nc2N1C1CCCCC1 [compound 144, 3-[(7R)-8-cyclohexyl-2-[(3,4-difluoro-1H-indazol-5-yl)amino]-7-methyl-6-oxo-7,8-dihydropteridin-5(6H)-yl]benzonitrile] | ≤ 100 nM
C[C@@H]1C(=O)N(c2cccc(C#N)c2)c2cnc(Nc3cc(F)c4c(c3)CC(=O)N4)nc2N1C1CCCCC1 [compound 145, 3-[(7R)-8-cyclohexyl-2-[(7-fluoro-2-oxo-2,3-dihydro-1H-indol-5-yl)amino]-7-methyl-6-oxo-7,8-dihydropteridin-5(6H)-yl]benzonitrile] | ≤ 100 nM
C[C@@H]1C(=O)N(c2cccc(C#N)c2)c2cnc(Nc3ccc4[nH]ncc4c3Cl)nc2N1C1CCCCC1 [compound 101, 3-[(7R)-2-[(4-chloro-1H-indazol-5-yl)amino]-8-cyclohexyl-7-methyl-6-oxo-7,8-dihydropteridin-5(6H)-yl]benzonitrile] | > 1000 nM
C[C@@H]1C(=O)N(c2ccccc2)c2cnc(Nc3ccc4[nH]ncc4c3)nc2N1C1CCCCC1 [Example 18, (7R)-8-cyclohexyl-2-(1H-indazol-5-ylamino)-7-methyl-5-phenyl-7,8-dihydropteridin-6(5H)-one] | ≤ 100 nM
C[C@@H]1C(=O)N(c2cccc(C#N)c2)c2cnc(Nc3cc(F)c4[nH]c(=O)oc4c3)nc2N1C1CCC(F)(F)CC1 [compound 277, 3-[(7R)-8-(4,4-difluorocyclohexyl)-2-[(4-fluoro-2-oxo-2,3-dihydro-1,3-benzoxazol-6-yl)amino]-7-methyl-6-oxo-7,8-dihydropteridin-5(6H)-yl]benzonitrile] | ≤ 100 nM
C[C@@H]1C(=O)N(c2ccc3ccccc3c2)c2cnc(Nc3ccc4[nH]ncc4c3)nc2N1C1CCCCC1 [Example 45, (7R)-8-cyclohexyl-2-(1H-indazol-5-ylamino)-7-methyl-5-(naphthalen-2-yl)-7,8-dihydropteridin-6(5H)-one] | ≤ 100 nM
CCOc1ccc(N2C(=O)[C@@H](C)N(C3CCOCC3)c3nc(Nc4cnc5[nH]ncc5c4)ncc32)cc1C#N [compound 201, 2-Ethoxy-5-[(7R)-7-methyl-6-oxo-2-(1H-pyrazolo[3,4-b]pyridin-5-ylamino)-8-(tetrahydro-2H-pyran-4-yl)-7,8-dihydropteridin-5(6H)-yl]benzonitrile] | ≤ 100 nM
COc1ccc(N2C(=O)[C@@H](C)N(CCC(C)C)c3nc(Nc4cc(F)c5[nH]ncc5c4)ncc32)cc1C#N [Example 91, 5-[(7R)-2-[(7-fluoro-1H-indazol-5-yl)amino]-7-methyl-8-(3-methylbutyl)-6-oxo-7,8-dihydropteridin-5(6H)-yl]-2-methoxybenzonitrile] | ≤ 100 nM
C[C@@H]1C(=O)N(c2cccc(C#N)c2)c2cnc(Nc3cc(F)c4[nH]ncc4c3)nc2N1C1CCC(F)(F)CC1 [Example 260, 3-[(7R)-8-(4,4-difluorocyclohexyl)-2-[(7-fluoro-1H-indazol-5-yl)amino]-7-methyl-6-oxo-7,8-dihydropteridin-5(6H)-yl]benzonitrile] | ≤ 100 nM
C[C@@H]1C(=O)N(c2cccc(Cl)c2)c2cnc(Nc3ccc4[nH]ncc4c3)nc2N1C1CCCCC1 [Example 31, (7R)-5-(3-chlorophenyl)-8-cyclohexyl-2-(1H-indazol-5-ylamino)-7-methyl-7,8-dihydropteridin-6(5H)-one] | ≤ 100 nM

From patent US9351974B2, “Substituted pteridinones for the treatment of cancer” (OSI Pharmaceuticals, LLC, priority 2011, dated 2016)
